Source: patent publication US10597378B2 (priority 2017, dated 2020)
Where two headings read alike, the source gives them in different places.

Legend:
[1] = test system: wild-type C57BL/6 (B6) mice; test: Tail flick test (acute thermal pain); assay type: in vivo, mouse; settings: equi-antinociceptive doses, B6 mice
[2] = test system: B6 mice; test: Respiratory function test; settings: acute, equi-antinociceptive doses
[3] = test system: mice; test: Conditioned place preference (CPP) test, reinstatement of morphine CPP; settings: challenge on reinstatement day (Day 21)
[4] = test system: B6 mice; test: Cardiovascular function test (tail cuff plethysmography); settings: acute, equi-antinociceptive doses
[5] = target: T1, human mu-opioid receptor (Homo sapiens, UniProt P35372); test: cell-based; assay type: cell-based
T1 construct: expressed in transfected cells; host or cells: HEK-293 (HEK-MOR), kept under G418
Procedure: Cells (72,000 per well) were plated in 100 μl/well of DMEM in 96-well solid-bottom white plates (GIBCO) and 50 μl/well of drug in HBSS in the presence of forskolin and 3-isobutyl-1-methylxanthine at final concentrations of 1 μM and 500 μM, respectively. After 30 min of incubation at room temperature, the concentration of cyclic adenosine monophosphate was determined using a LANCE Ultra cAMP Assay kit (PerkinElmer).
As MOR belongs to the GPCR family, activation of MOR leads to a decrease in intracellular cAMP level.

[6] = target: MOR (Homo sapiens, UniProt P35372); test: cell-based; parameters: expressed in transfected cells; host or cells: CHO-K1/MOR/Ga15 cells; settings: for EC50: read-out: FLIPR Ca2+ EC50; for FLIPR Ca2+ AUC: area under the [Ca2+]i fluorescence response curve, up to 90 s
Procedure: In an exemplary in vitro assay for identifying MOR agonists, cells that express a MOR are treated with a test compound in a cellular calcium fluorescent assay and calcium fluorescence intensity is then measured to determine whether the MOR is activated. A test compound is identified as a MOR agonist if the MOR is activated.
EC50 herein refers to the concentration of a compound that induces a response halfway between the baseline and the maximum after a specified exposure time. AUC refers to the area under the response curve, an indication of the compound's capability of activating a MOR.
One day before the assay, CORNING® black with clear flat bottom 96-well assay plates were coated with a 0.1 mg/mL Poly-L-Lysine solution. CHO-K1/MOR/Ga15 cells were suspended in the F12 medium and plated at a density of about 8×10^4 cells/well in […] medium. Cells were incubated in a humidified atmosphere of 10% CO2 at 37° C. overnight so as to reach an 80-90% confluent cell monolayer before the assay. On the day of the assay, 150 μL medium/well was removed from plate. […] Compounds and other reagents were dissolved in the assay buffer. […] The [Ca^2+]i fluorescence was measured up to 90 s after agonist injection.

Sequence of MOR (P35372 whole entry): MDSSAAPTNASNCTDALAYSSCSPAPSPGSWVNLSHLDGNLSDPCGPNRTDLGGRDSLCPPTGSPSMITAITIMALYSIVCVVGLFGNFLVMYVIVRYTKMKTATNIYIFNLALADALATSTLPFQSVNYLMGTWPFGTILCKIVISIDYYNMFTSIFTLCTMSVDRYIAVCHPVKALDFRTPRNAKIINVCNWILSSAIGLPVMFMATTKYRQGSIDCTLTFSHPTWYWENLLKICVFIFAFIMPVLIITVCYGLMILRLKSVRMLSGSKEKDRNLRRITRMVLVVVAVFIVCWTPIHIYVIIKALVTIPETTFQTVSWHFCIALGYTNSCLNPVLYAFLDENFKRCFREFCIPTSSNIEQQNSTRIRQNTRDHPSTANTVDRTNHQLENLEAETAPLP
T1 sequence (P35372 whole entry): as above

Molecule | EC50 ([6]; CHO-K1/MOR/Ga15 cells) [µM] | FLIPR Ca2+ AUC [6] | further results
CN1CC[C@]23c4c5ccc(O)c4O[C@H]2[C@@H](O)C=C[C@H]3[C@H]1C5.Cl [morphine, Morphine hydrochloride, reference compound] | – | – | time at which analgesic effects were exerted after acute injection [1]: 20 min; respiratory amplitude (tidal volume) [2]: significantly reduced respiratory amplitude (tidal volume) at 10 to 20 min; respiratory frequency ([2]; 10-60 min): marked respiratory depression at 10 min and keep falling of respiratory frequency going through 60 min; reinstatement of morphine CPP [3]: induced reinstatement of morphine CPP; blood pressure [4]: non-significant effect on blood pressure; heart rate (pulse) [4]: reduced from 10 to 30 min; rate-pressure product [4]: reduced from 10 to 20 min
[Met5]enkephalin [Met-5, reference compound] | – | – | cAMP production [5]: significantly decreased cAMP production
COc1ccccc1C(=O)NCC1NCCc2ccccc21 (stereo not drawn) [Compound 55, 2-Methoxy-N-(1,2,3,4-tetrahydro-1-isoquinolinylmethyl)benzamide] | 3.31 | 4312 | –
O=C(NCC1c2ccccc2CCN1S(=O)(=O)c1ccc(Br)cc1OC(F)(F)F)C1CC1 (stereo not drawn) [Compound 28, N-[(2-{[4-Bromo-2-(trifluoromethoxy)phenyl]sulfonyl}-1,2,3,4-tetrahydro-1-isoquinolinyl)methyl]cyclopropanecarboxamide] | 5.03 | 11880 | –
O=C(NCC1NCCc2ccccc21)C1CCCC1 (stereo not drawn) [Compound 43, N-(1,2,3,4-Tetrahydro-1-isoquinolinylmethyl)cyclopentanecarboxamide] | 8.91 | 5768 | –
O=C(NCC1NCCc2ccccc21)N1CCCCC1 (stereo not drawn) [Compound 35, N-(1,2,3,4-Tetrahydro-1-isoquinolinylmethyl)-1-piperidinecarboxamide] | 3.31 | – | –
O=C(NCC1NCCc2ccccc21)c1cccc(Cl)c1 (stereo not drawn) [Compound 53, 3-Chloro-N-(1,2,3,4-tetrahydro-1-isoquinolinylmethyl)benzamide] | 0.38 | 13149 | –
COC1CCC(C(=O)NCC2NCCc3ccccc32)CC1 (stereo not drawn) [Compound 42, 4-Methoxy-N-(1,2,3,4-tetrahydro-1-isoquinolinylmethyl)cyclohexanecarboxamide] | 6.6 | 5538 | –
CCc1ccc(C(=O)NCC2NCCc3ccccc32)cc1 (stereo not drawn) [Compound 50, 4-Ethyl-N-(1,2,3,4-tetrahydro-1-isoquinolinylmethyl)benzamide] | – | – | EC50 [6]: 0.06 µM
O=C(NCC1NCCc2ccccc21)N1CCOCC1 (stereo not drawn) [Compound 36, N-(1,2,3,4-Tetrahydro-1-isoquinolinylmethyl)-4-morpholinecarboxamide] | 8.08 | – | –
O=C(NCC1c2ccccc2CCN1S(=O)(=O)c1ccc(Br)cc1F)C1CCCCC1 (stereo not drawn) [Compound 12, N-({2-[ (4-Bromo-2-fluorophenyl)sulfonyl]-1,2,3,4-tetrahydro-1-isoquinolinyl}methyl)cyclohexanecarboxamide] | 9.61 | 7271 | –
CC(C)(C)C(=O)NCC1c2ccccc2CCN1S(=O)(=O)c1ccc(Br)cc1OC(F)(F)F (stereo not drawn) [Compound 29, N-[(2-{[4-Bromo-2-(trifluoromethoxy)phenyl]sulfonyl}-1,2,3,4-tetrahydro-1-isoquinolinyl)methyl]-2,2-dimethylpropanamide] | 4.61 | 12780 | –
Cc1cccc(C(=O)NCC2NCCc3ccccc32)c1 (stereo not drawn) [Compound 54, 3-Methyl-N-(1,2,3,4-tetrahydro-1-isoquinolinylmethyl)benzamide] | – | – | EC50 [6]: 0.37 µM
CCCCN1CCc2ccccc2C1CNC(=O)c1ccc(C)cc1 (stereo not drawn) [Compound 62, N-[(2-Butyl-1,2,3,4-tetrahydro-1-isoquinolinyl)methyl]-4-methylbenzamide] | 0.16 | 14669 | –
CC1CCC(C(=O)NCC2NCCc3ccccc32)CC1 (stereo not drawn) [Compound 39, 4-Methyl-N-(1,2,3,4-tetrahydro-1-isoquinolinylmethyl)cyclohexanecarboxamide] | 1.53 | 12657 | –
O=C(NCC1c2ccccc2CCN1S(=O)(=O)c1ccc(Br)cc1OC(F)(F)F)N1CCCC1 (stereo not drawn) [Compound 26, N-[(2-{[4-Bromo-2-(trifluoromethoxy)phenyl]sulfonyl}-1,2,3,4-tetrahydro-1-isoquinolinyl)methyl]-1-pyrrolidinecarboxamide] | 4.34 | 12484 | –
Cc1cc(F)ccc1S(=O)(=O)N1CCc2ccccc2C1CNC(=O)C1CCCCC1 (stereo not drawn) [Compound 16, N-({2-[(4-Fluoro-2-methylphenyl)sulfonyl]-1,2,3,4-tetrahydro-1-isoquinolinyl}methyl)cyclohexanecarboxamide] | 10 | 6213 | –
CCC1CCC(C(=O)NCC2NCCc3ccccc32)CC1 (stereo not drawn) [Compound 40, 4-Ethyl-N-(1,2,3,4-tetrahydro-1-isoquinolinylmethyl)cyclohexanecarboxamide] | 1.12 | 10059 | –
O=C(NCC1c2ccccc2CCN1S(=O)(=O)c1ccc(Br)cc1OC(F)(F)F)c1ccccc1 (stereo not drawn) [Compound 24, N-[(2-{[4-Bromo-2-(trifluoromethoxy)phenyl]sulfonyl}-1,2,3,4-tetrahydro-1-isoquinolinyl)methyl]benzamide] | 5.62 | 9294 | –
O=C(NCC1c2ccccc2CCN1S(=O)(=O)c1ccc(Br)cc1OC(F)(F)F)C1CCCC1 (stereo not drawn) [Compound 21, N-[(2-{[4-Bromo-2-(trifluoromethoxy)phenyl]sulfonyl}-1,2,3,4-tetrahydro-1-isoquinolinyl)methyl]cyclopentanecarboxamide] | 0.81 | – | –
Cc1ccc(C(=O)NCC2NCCc3ccccc32)cc1 (stereo not drawn) [Compound 38, 4-Methyl-N-(1,2,3,4-tetrahydro-1-isoquinolinylmethyl)benzamide] | – | – | EC50 [6]: 0.14 µM
O=C(NCC1c2ccccc2CCN1S(=O)(=O)c1ccc(Br)cc1OC(F)(F)F)C1CCCCC1 (stereo not drawn) [Compound 6, N-[(2-{[4-Bromo-2-(trifluoromethoxy)phenyl]sulfonyl}-1,2,3,4-tetrahydro-1-isoquinolinyl)methyl]cyclohexanecarboxamide] | 1.12 | 15139 | –
